Converted amounts (≈) assume the structure as drawn.
What was measured:
Streptococcus pneumoniae [1] = assay: Antibacterial activity against erythromycin-resistant Streptococcus pneumoniae B1 encoded by erm gene
Streptococcus pneumoniae [2] = assay: Antibacterial activity against erythromycin-resistant Streptococcus pneumoniae AB11 encoded by erm and mef gene
Streptococcus pneumoniae [3] = assay: Antibacterial activity against erythromycin-susceptible Streptococcus pneumoniae ATCC 49619
Streptococcus pneumoniae [4] = assay: Antibacterial activity against erythromycin-resistant Streptococcus pneumoniae A22072 encoded by mef gene

| SMILES | MIC (Streptococcus pneumoniae [1]) [µg/mL] | MIC (Streptococcus pneumoniae [2]) [µg/mL] | MIC (Streptococcus pneumoniae [3]) [µg/mL] | MIC (Streptococcus pneumoniae [4]) [µg/mL] |
| --- | --- | --- | --- | --- |
| CC[C@H]1OC(=O)[C@H](C)[C@@H](O[C@H]2C[C@@](C)(OC)[C@@H](OC(=O)NCCc3ccc4c(c3)OCO4)[C@H](C)O2)[C@H](C)[C@@H](O[C@@H]2O[C@H](C)C[C@H](N(C)C)[C@H]2O)[C@@](C)(O)C[C@@H](C)CN(C)C(C)[C@H]2OC(=O)O[C@@]21C (stereo partly specified) | 4 (≈ 4.14 µM) | 2 (≈ 2.07 µM) | < 0.03 | 0.06 (≈ 0.0621 µM) |
| CC[C@H]1OC(=O)[C@H](C)[C@@H](O[C@H]2C[C@@](C)(OC)[C@@H](OC(=O)NCCc3ccc(O)cc3)[C@H](C)O2)[C@H](C)[C@@H](O[C@@H]2O[C@H](C)C[C@H](N(C)C)[C@H]2O)[C@@](C)(O)C[C@@H](C)CN(C)[C@H](C)[C@@H](OC(=O)NCc2ccccc2)[C@]1(C)O | 0.25 (≈ 0.239 µM) | 128 (≈ 122 µM) | < 0.03 | 0.12 (≈ 0.115 µM) |
| CC[C@H]1OC(=O)[C@H](C)[C@@H](O[C@H]2C[C@@](C)(OC)[C@@H](OC(=O)NC3CCCCC3)[C@H](C)O2)[C@H](C)[C@@H](O[C@@H]2O[C@H](C)C[C@H](N(C)C)[C@H]2O)[C@@](C)(O)C[C@@H](C)CN(C)[C@H](C)[C@@H](O)[C@]1(C)O | 32 (≈ 36.6 µM) | 128 (≈ 146 µM) | 0.12 (≈ 0.137 µM) | 8 (≈ 9.15 µM) |
| C=CCNC(=O)O[C@H]1[C@H](C)O[C@@H](O[C@H]2[C@H](C)[C@@H](O[C@@H]3O[C@H](C)C[C@H](N(C)C)[C@H]3O)[C@@](C)(O)C[C@@H](C)CN(C)[C@H](C)[C@H]3OC(=O)O[C@]3(C)[C@@H](CC)OC(=O)[C@@H]2C)C[C@@]1(C)OC | 64 (≈ 74.6 µM) | 128 (≈ 149 µM) | 0.12 (≈ 0.14 µM) | 1 (≈ 1.17 µM) |
| CCCNC(=O)O[C@H]1[C@H](C)O[C@@H](O[C@H]2[C@H](C)[C@@H](O[C@@H]3O[C@H](C)C[C@H](N(C)C)[C@H]3O)[C@@](C)(O)C[C@@H](C)CN(C)[C@H](C)[C@H]3OC(=O)O[C@]3(C)[C@@H](CC)OC(=O)[C@@H]2C)C[C@@]1(C)OC | 16 (≈ 18.6 µM) | 16 (≈ 18.6 µM) | 0.06 (≈ 0.0698 µM) | 0.12 (≈ 0.14 µM) |
| CC[C@H]1OC(=O)[C@H](C)[C@@H](O[C@H]2C[C@@](C)(OC)[C@@H](O)[C@H](C)O2)[C@H](C)[C@@H](O[C@@H]2O[C@H](C)C[C@H](N(C)C)[C@H]2O)[C@](C)(OC)C[C@@H](C)C(=O)[C@H](C)[C@@H](O)[C@]1(C)O [CLARITHROMYCIN] | 64 (≈ 85.6 µM) | 128 (≈ 171 µM) | < 0.03 | 4 (≈ 5.35 µM) |
| CC[C@H]1OC(=O)[C@H](C)[C@@H](O[C@H]2C[C@@](C)(OC)[C@@H](OC(=O)NCCc3ccccc3Cl)[C@H](C)O2)[C@H](C)[C@@H](O[C@@H]2O[C@H](C)C[C@H](N(C)C)[C@H]2O)[C@@](C)(O)C[C@@H](C)CN(C)[C@H](C)[C@@H](O)[C@]1(C)O | 8 (≈ 8.6 µM) | 8 (≈ 8.6 µM) | < 0.03 | 1 (≈ 1.07 µM) |
| CCCCNC(=O)O[C@H]1[C@H](C)O[C@@H](O[C@H]2[C@H](C)[C@@H](O[C@@H]3O[C@H](C)C[C@H](N(C)C)[C@H]3O)[C@@](C)(O)C[C@@H](C)CN(C)[C@H](C)[C@H]3OC(=O)O[C@]3(C)[C@@H](CC)OC(=O)[C@@H]2C)C[C@@]1(C)OC | 8 (≈ 9.15 µM) | 16 (≈ 18.3 µM) | 0.12 (≈ 0.137 µM) | 1 (≈ 1.14 µM) |
| CC[C@H]1OC(=O)[C@H](C)[C@@H](O[C@H]2C[C@@](C)(OC)[C@@H](OC(=O)NCc3ccc(OC)cc3)[C@H](C)O2)[C@H](C)[C@@H](O[C@@H]2O[C@H](C)C[C@H](N(C)C)[C@H]2O)[C@@](C)(O)C[C@@H](C)CN(C)[C@H](C)[C@H]2OC(=O)O[C@@]21C | 8 (≈ 8.53 µM) | 16 (≈ 17.1 µM) | < 0.03 | 0.25 (≈ 0.266 µM) |
| CC[C@H]1OC(=O)[C@H](C)[C@@H](O[C@H]2C[C@@](C)(OC)[C@@H](O)[C@H](C)O2)[C@H](C)[C@@H](O[C@@H]2O[C@H](C)C[C@H](N(C)C)[C@H]2O)[C@](C)(O)C[C@@H](C)CN(C)[C@H](C)[C@@H](O)[C@]1(C)O [AZITHROMYCIN] | 128 (≈ 171 µM) | 256 (≈ 342 µM) | < 0.03 | 4 (≈ 5.34 µM) |
| CC[C@H]1OC(=O)[C@H](C)[C@@H](O[C@H]2C[C@@](C)(OC)[C@@H](OC(=O)NCc3ccc(F)cc3)[C@H](C)O2)[C@H](C)[C@@H](O[C@@H]2O[C@H](C)C[C@H](N(C)C)[C@H]2O)[C@@](C)(O)C[C@@H](C)CN(C)[C@H](C)[C@H]2OC(=O)O[C@@]21C | 8 (≈ 8.64 µM) | 4 (≈ 4.32 µM) | 0.06 (≈ 0.0648 µM) | 0.06 (≈ 0.0648 µM) |
| CC[C@H]1OC(=O)[C@H](C)[C@@H](O[C@H]2C[C@@](C)(OC)[C@@H](OC(=O)NCCc3ccccc3Cl)[C@H](C)O2)[C@H](C)[C@@H](O[C@@H]2O[C@H](C)C[C@H](N(C)C)[C@H]2O)[C@@](C)(O)C[C@@H](C)CN(C)[C@H](C)[C@H]2OC(=O)O[C@@]21C | 8 (≈ 8.36 µM) | 2 (≈ 2.09 µM) | 0.06 (≈ 0.0627 µM) | 0.25 (≈ 0.261 µM) |
| CC[C@H]1OC(=O)[C@H](C)[C@@H](O[C@H]2C[C@@](C)(OC)[C@@H](OC(=O)NCc3ccc(F)cc3)[C@H](C)O2)[C@H](C)[C@@H](O[C@@H]2O[C@H](C)C[C@H](N(C)C)[C@H]2O)[C@@](C)(O)C[C@@H](C)CN(C)[C@H](C)[C@@H](O)[C@]1(C)O | 4 (≈ 4.44 µM) | 16 (≈ 17.8 µM) | < 0.03 | 0.25 (≈ 0.278 µM) |
| CC[C@H]1OC(=O)[C@H](C)[C@@H](O[C@H]2C[C@@](C)(OC)[C@@H](OC(=O)NCc3ccccc3)[C@H](C)O2)[C@H](C)[C@@H](O[C@@H]2O[C@H](C)C[C@H](N(C)C)[C@H]2O)[C@@](C)(O)C[C@@H](C)CN(C)[C@H](C)[C@H]2OC(=O)O[C@@]21C | 8 (≈ 8.81 µM) | 8 (≈ 8.81 µM) | < 0.03 | 0.12 (≈ 0.132 µM) |

Reference: ChEMBL document CHEMBL1154057, “Synthesis and antibacterial activity of novel 15-membered macrolide derivatives: 4''-carbamate, 11,12-cyclic carbonate-4''-carbamate and 11,4''-di-O-arylcarbamoyl analogs of azithromycin” (2009)
